Measurements published in patent US20230074545A1, “TREATMENT OF CANCER WITH CDK12/13 INHIBITORS” (Kinnate Biopharma Inc., priority 2019, published 2023).

Assays:
Test in all cases: Radiometric kinase panel
Type in all cases: biochemical
IRAK4 = target: T1, IRAK4 (Homo sapiens, UniProt Q9NWZ3)
T1 construct: purchased ProQinase GmbH (Reaction Biology)
Method: (§1) The compounds 1-5 (see Table 1) were assayed for kinase activity at ProQinase (ProQinase GmbH, Reaction Biology; Freiburg, Germany) using their commercially available radiometric kinase assay services. Briefly, the compounds were provided as solids and were dissolved to 1×10^−03 M/100% DMSO stock solutions on the day of assay. All protein kinases were provided by ProQinase and were expressed in Sf9 insect cells or in E. coli as recombinant GST-fusion proteins or His-tagged proteins, either as full-length or enzymatically active fragments. All kinases were produced from human cDNAs and purified by either GSH-affinity chromatography or immobilized metal. The purity of the protein kinases was examined by SDS-PAGE/Coomassie staining, the identity was checked by mass spectroscopy. A radiometric protein kinase assay (^33PanQinase® Activity Assay) was used for measuring the kinase activity of the protein kinase. All kinase assays were performed in 96-well FlashPlates™ from PerkinElmer (Boston, Mass., USA) in a 50 microliter reaction volume. The reaction cocktail was pipetted in four steps in the following order: 1) 25 microliter of assay buffer (standard buffer/[gamma-^33P]-ATP); 2) 10 microliter of ATP solution (in H2O); 3) 5 microliter of test compound (in 10% DMSO); 4) 10 microliter of enzyme/substrate mixture.
(§2) Compound 4 was analyzed for selectivity against a panel of other kinases at ProQinase using their commercially available radiometric kinase assay services and the methods described in Example 1.

SNARK = target: T2, SNARK (Homo sapiens, UniProt Q9H093)
T2 construct: purchased ProQinase GmbH (Reaction Biology)
Method: as §1, §2

CDK1/CycA2 = target: T3, CDK1/CycA2 (Homo sapiens, UniProt P06493)
T3 construct: either as full-length or enzymatically active fragments; purchased ProQinase GmbH (Reaction Biology)
Method: as §1, §2

MAP3K9 = target: T4, MAP3K9 (Homo sapiens, UniProt P80192)
T4 construct: either as full-length or enzymatically active fragments; purchased ProQinase GmbH (Reaction Biology)
Method: as §1, §2

CLK1 = target: T5, CLK1 (Homo sapiens, UniProt P49759)
T5 construct: either as full-length or enzymatically active fragments; purchased ProQinase GmbH (Reaction Biology)
Method: as §1, §2

CK1alpha1 = target: T6, CK1alpha1 (Homo sapiens, UniProt P48729)
T6 construct: either as full-length or enzymatically active fragments; purchased ProQinase GmbH (Reaction Biology); host or cells: Sf9 insect cells or E. coli
Method: as §1, §2

HIPK4 = target: T7, HIPK4 (Homo sapiens, UniProt Q8NE63)
T7 construct: either as full-length or enzymatically active fragments; purchased ProQinase GmbH (Reaction Biology); host or cells: Sf9 insect cells or E. coli
Method: as §1, §2

ERK2 = target: T8, ERK2 (Homo sapiens, UniProt P28482)
T8 construct: either as full-length or enzymatically active fragments; purchased ProQinase GmbH (Reaction Biology); host or cells: Sf9 insect cells or E. coli (not specified per kinase)
T8 sequence (P28482 whole entry, the tested form may be a part): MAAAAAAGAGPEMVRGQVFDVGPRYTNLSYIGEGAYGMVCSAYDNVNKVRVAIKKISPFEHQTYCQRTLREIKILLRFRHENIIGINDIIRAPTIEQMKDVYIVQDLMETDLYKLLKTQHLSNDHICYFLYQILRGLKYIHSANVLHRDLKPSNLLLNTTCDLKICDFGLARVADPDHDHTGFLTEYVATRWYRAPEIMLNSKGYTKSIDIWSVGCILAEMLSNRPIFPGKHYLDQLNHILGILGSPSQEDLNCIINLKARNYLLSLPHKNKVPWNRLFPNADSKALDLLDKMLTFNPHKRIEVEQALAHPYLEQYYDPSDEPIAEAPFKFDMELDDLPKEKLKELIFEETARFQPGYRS
Method: as §1, §2

EPHB4 = target: T9, EPHB4 (Homo sapiens, UniProt P54760)
T9 construct: either as full-length or enzymatically active fragments; purchased ProQinase GmbH (Reaction Biology)
T9 sequence (P54760 16-987): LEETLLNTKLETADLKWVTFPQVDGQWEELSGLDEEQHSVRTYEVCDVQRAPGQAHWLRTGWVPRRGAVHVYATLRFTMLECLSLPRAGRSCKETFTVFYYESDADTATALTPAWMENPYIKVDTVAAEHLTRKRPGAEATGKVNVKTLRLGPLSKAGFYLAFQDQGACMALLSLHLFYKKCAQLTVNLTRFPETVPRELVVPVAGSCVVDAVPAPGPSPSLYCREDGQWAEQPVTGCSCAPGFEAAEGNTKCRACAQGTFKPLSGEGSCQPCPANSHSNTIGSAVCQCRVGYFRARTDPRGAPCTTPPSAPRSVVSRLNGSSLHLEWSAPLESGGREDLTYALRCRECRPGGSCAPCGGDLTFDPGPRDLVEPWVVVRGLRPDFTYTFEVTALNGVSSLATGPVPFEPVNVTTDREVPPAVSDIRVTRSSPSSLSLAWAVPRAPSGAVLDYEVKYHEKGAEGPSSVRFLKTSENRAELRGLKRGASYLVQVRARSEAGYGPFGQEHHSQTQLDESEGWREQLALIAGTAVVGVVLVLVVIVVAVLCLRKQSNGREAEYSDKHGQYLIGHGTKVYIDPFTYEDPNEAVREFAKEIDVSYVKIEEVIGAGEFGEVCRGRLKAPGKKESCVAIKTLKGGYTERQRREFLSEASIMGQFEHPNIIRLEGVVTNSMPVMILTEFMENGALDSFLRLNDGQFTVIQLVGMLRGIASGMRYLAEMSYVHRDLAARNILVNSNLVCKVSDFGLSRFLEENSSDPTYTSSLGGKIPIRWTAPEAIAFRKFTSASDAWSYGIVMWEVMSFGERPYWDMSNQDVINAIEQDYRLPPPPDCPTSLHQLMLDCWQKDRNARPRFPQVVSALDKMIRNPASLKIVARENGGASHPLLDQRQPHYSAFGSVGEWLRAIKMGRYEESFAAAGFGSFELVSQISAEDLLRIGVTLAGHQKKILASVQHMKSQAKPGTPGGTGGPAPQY
Method: as §1, §2

MAP3K1 = target: T10, MAP3K1 (Homo sapiens, UniProt Q13233)
T10 construct: either as full-length or enzymatically active fragments; purchased ProQinase GmbH (Reaction Biology); host or cells: Sf9 insect cells or E. coli (not specified per kinase)
Method: as §1, §2

ACVR2B = target: T11, ACVR2B (Homo sapiens, UniProt Q13705)
T11 construct: either as full-length or enzymatically active fragments; purchased ProQinase GmbH (Reaction Biology)
Method: as §1, §2

SIK1 = target: T12, SIK1 (Homo sapiens, UniProt P57059)
T12 construct: either as full-length or enzymatically active fragments; purchased ProQinase GmbH (Reaction Biology)
Method: as §1, §2

BLK = target: T13, BLK (Homo sapiens, UniProt P51451)
T13 construct: purchased ProQinase GmbH (Reaction Biology)
Method: as §1, §2

TRKA = target: T14, TRKA (Homo sapiens, UniProt P04629)
T14 construct: either as full-length or enzymatically active fragments; purchased ProQinase GmbH (Reaction Biology)
Method: as §1, §2

TIE2 = target: T15, TIE2 (Homo sapiens, UniProt Q02763)
T15 construct: either as full-length or enzymatically active fragments; purchased ProQinase GmbH (Reaction Biology); host or cells: Sf9 insect cells or E. coli
Method: as §1, §2

PRKD2 = target: T16, PRKD2 (Homo sapiens, UniProt Q9BZL6)
T16 construct: either as full-length or enzymatically active fragments; purchased ProQinase GmbH (Reaction Biology); host or cells: Sf9 insect cells or E. coli
Method: as §1, §2

CDK7/CycH/MAT1 = target: T17, CDK7/CycH/MAT1 (Homo sapiens, UniProt P50613)
T17 construct: either as full-length or enzymatically active fragments; purchased ProQinase GmbH (Reaction Biology)
T17 sequence (P50613 whole entry, the tested form may be a part): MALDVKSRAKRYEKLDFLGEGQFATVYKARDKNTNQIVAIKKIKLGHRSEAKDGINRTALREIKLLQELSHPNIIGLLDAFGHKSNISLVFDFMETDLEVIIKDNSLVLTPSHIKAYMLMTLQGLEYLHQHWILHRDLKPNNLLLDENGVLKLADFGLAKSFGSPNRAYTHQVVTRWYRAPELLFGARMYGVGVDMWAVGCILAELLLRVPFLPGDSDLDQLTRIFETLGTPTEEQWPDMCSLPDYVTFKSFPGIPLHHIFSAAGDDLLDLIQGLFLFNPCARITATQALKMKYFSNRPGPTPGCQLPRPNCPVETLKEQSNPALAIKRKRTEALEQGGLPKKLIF
T17 sequence (P51946 whole entry partner, the tested form may be a part): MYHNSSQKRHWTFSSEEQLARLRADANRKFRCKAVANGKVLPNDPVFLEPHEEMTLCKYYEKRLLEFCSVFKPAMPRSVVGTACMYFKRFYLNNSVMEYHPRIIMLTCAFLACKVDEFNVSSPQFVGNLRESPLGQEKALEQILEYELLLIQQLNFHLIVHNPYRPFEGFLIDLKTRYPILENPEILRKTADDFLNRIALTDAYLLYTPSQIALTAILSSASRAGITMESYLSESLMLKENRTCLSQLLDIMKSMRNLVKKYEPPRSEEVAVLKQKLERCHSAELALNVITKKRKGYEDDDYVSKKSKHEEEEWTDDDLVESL
T17 sequence (P51948 whole entry partner, the tested form may be a part): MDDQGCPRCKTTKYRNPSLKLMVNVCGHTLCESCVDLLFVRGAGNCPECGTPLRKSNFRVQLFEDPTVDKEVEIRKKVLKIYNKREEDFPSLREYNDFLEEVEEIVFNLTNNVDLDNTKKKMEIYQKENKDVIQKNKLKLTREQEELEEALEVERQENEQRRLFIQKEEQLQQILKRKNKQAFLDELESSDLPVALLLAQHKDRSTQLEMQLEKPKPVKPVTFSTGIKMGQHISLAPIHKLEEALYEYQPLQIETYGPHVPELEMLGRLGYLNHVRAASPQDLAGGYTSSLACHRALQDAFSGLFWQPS
Method: as §1, §2

RPS6KA3 = target: T18, RPS6KA3 (Homo sapiens, UniProt P51812)
T18 construct: purchased ProQinase GmbH (Reaction Biology); host or cells: Sf9 insect cells or E. coli (not specified per kinase)
T18 sequence (P51812 whole entry): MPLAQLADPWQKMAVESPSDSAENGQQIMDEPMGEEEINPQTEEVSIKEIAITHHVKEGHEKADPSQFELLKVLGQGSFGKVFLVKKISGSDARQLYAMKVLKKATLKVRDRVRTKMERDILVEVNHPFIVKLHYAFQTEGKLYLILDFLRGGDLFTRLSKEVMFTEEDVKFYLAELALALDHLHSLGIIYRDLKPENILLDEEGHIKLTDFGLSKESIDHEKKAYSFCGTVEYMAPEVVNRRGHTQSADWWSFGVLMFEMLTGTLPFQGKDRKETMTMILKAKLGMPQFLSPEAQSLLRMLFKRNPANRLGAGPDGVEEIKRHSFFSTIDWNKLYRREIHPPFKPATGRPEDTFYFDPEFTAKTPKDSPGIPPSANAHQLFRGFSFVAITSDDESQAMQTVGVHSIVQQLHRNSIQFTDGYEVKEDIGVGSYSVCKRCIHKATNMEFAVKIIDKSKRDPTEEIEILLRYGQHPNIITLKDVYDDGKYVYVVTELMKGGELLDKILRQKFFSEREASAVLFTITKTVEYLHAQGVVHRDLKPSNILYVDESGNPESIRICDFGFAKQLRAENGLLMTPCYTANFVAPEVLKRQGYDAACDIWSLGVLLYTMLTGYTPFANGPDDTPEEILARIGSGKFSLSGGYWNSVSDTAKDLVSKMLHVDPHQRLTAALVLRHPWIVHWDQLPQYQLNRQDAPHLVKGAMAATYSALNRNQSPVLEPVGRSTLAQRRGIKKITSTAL
Method: as §1, §2

TXK = target: T19, TXK (Homo sapiens, UniProt P42681)
T19 construct: either as full-length or enzymatically active fragments; purchased ProQinase GmbH (Reaction Biology)
Method: as §1, §2

ABL1 = target: T20, ABL1 (Homo sapiens, UniProt P00519)
T20 construct: purchased ProQinase GmbH (Reaction Biology)
Method: as §1, §2

JAK3 = target: T21, JAK3 (Homo sapiens, UniProt P52333)
T21 construct: purchased ProQinase GmbH (Reaction Biology)
Method: as §1, §2

PYK2 = target: T22, PYK2 (Homo sapiens, UniProt Q14289)
T22 construct: either as full-length or enzymatically active fragments; purchased ProQinase GmbH (Reaction Biology)
T22 sequence (Q14289 whole entry, the tested form may be a part): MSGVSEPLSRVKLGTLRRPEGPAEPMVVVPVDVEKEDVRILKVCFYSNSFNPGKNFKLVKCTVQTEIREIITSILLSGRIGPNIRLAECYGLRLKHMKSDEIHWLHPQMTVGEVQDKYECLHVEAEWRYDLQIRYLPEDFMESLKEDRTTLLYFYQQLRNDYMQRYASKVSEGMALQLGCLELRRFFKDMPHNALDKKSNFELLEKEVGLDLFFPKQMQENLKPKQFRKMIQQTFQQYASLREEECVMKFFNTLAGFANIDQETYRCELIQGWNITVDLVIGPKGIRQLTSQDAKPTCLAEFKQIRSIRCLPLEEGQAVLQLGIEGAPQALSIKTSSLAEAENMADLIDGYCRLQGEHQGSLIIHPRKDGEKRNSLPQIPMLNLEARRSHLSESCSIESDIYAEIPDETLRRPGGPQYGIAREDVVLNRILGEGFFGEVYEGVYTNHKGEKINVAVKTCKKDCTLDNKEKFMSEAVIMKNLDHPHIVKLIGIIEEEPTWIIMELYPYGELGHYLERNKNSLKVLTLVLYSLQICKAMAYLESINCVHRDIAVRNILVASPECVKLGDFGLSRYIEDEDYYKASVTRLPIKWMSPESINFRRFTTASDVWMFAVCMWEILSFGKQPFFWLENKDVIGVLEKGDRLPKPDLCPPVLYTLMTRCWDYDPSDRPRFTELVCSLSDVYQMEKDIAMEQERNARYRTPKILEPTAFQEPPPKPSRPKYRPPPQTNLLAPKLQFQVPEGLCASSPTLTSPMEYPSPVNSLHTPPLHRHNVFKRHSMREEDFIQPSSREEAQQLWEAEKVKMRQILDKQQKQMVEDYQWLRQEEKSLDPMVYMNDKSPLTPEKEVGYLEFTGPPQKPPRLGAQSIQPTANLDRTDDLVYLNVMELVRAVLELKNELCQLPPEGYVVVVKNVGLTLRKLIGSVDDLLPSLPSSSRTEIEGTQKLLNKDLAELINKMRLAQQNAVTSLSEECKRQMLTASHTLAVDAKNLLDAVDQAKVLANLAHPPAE
Method: as §1, §2

FAK = target: T23, FAK (Homo sapiens, UniProt Q05397)
T23 construct: either as full-length or enzymatically active fragments; purchased ProQinase GmbH (Reaction Biology); host or cells: Sf9 insect cells or E. coli
Method: as §1, §2

PKCzeta = target: T24, PKCzeta (Homo sapiens, UniProt Q05513)
T24 construct: either as full-length or enzymatically active fragments; purchased ProQinase GmbH (Reaction Biology)
Method: as §1, §2

FGFR4 = target: T25, FGFR4 (Homo sapiens, UniProt P22455)
T25 construct: either as full-length or enzymatically active fragments; purchased ProQinase GmbH (Reaction Biology)
T25 sequence (P22455 22-802): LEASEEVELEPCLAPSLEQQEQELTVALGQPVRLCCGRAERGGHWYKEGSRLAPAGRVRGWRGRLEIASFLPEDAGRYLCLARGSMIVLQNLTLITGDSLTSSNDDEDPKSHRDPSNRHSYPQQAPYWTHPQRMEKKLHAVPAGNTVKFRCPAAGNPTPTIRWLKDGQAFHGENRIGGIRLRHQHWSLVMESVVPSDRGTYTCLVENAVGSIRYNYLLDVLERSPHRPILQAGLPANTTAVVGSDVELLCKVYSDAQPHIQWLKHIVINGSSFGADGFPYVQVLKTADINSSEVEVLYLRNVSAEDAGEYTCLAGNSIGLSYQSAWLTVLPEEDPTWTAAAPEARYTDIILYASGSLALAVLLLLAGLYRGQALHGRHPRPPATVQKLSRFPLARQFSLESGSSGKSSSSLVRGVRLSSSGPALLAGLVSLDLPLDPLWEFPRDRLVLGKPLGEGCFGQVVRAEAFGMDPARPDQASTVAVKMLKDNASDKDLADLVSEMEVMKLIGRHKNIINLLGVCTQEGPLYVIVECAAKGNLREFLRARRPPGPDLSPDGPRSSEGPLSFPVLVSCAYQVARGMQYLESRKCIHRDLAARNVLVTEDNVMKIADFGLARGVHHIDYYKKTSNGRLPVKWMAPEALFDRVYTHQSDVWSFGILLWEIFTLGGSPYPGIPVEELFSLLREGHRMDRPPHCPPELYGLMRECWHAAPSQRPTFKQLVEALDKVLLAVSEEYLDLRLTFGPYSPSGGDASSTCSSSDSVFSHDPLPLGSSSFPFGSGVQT
Method: as §1, §2

RPS6KA1 = target: T26, RPS6KA1 (Homo sapiens, UniProt Q15418)
T26 construct: purchased ProQinase GmbH (Reaction Biology)
Method: as §1, §2

EPHA8 = target: T27, EPHA8 (Homo sapiens, UniProt P29322)
T27 construct: either as full-length or enzymatically active fragments; purchased ProQinase GmbH (Reaction Biology); host or cells: Sf9 insect cells or E. coli (not specified per kinase)
Method: as §1, §2

MKK6 SDTD = target: T28, MKK6 SDTD (Homo sapiens, UniProt P52564, S207D/T211D)
T28 construct: either as full-length or enzymatically active fragments; purchased ProQinase GmbH (Reaction Biology); host or cells: Sf9 insect cells or E. coli (not specified per kinase)
Method: as §1, §2

AuroraC = target: T29, AuroraC (Homo sapiens, UniProt Q9UQB9)
T29 construct: either as full-length or enzymatically active fragments; purchased ProQinase GmbH (Reaction Biology)
Method: as §1, §2

GRK3 = target: T30, GRK3 (Homo sapiens, UniProt P35626)
T30 construct: either as full-length or enzymatically active fragments; purchased ProQinase GmbH (Reaction Biology)
Method: as §1, §2

For `C=CC(=O)Nc1ccc(C(=O)N2CC[C@@H](Nc3ncc(C#N)cn3)C2)cc1` [Compound 4, (R)-N-(4-(3-((5-cyanopyrimidin-2-yl)amino)pyrrolidine-1-carbonyl)phenyl)acrylamide], which inhibition at 1 µM (IRAK4) is on record?
Its inhibition at 1 µM is 0%.

What about the inhibition at 1 µM (SNARK) of the same compound?
Its inhibition at 1 µM is 0%.

What about the inhibition at 1 µM (CDK1/CycA2) of the same compound?
Its inhibition at 1 µM is 17%.

What about the inhibition at 1 µM (MAP3K9) of the same compound?
Its inhibition at 1 µM is -4%.

And the inhibition at 1 µM (CLK1)?
The inhibition at 1 µM was -3%.

And the inhibition at 1 µM (CK1alpha1)?
Its inhibition at 1 µM is 12%.

What about the inhibition at 1 µM (HIPK4) of the same compound?
Its inhibition at 1 µM is 11%.

What about the inhibition at 1 µM (ERK2) of the same compound?
The inhibition at 1 µM was 9%.

What about the inhibition at 1 µM (EPHB4) of the same compound?
Its inhibition at 1 µM is -4%.

And the inhibition at 1 µM (MAP3K1)?
The inhibition at 1 µM was 9%.

And the inhibition at 1 µM (ACVR2B)?
Its inhibition at 1 µM is 6%.

And the inhibition at 1 µM (SIK1)?
The inhibition at 1 µM was 7%.

And the inhibition at 1 µM (BLK)?
The inhibition at 1 µM was -2%.

And the inhibition at 1 µM (TRKA)?
Its inhibition at 1 µM is -7%.

And the inhibition at 1 µM (TIE2)?
The inhibition at 1 µM was -18%.

And the inhibition at 1 µM (PRKD2)?
The inhibition at 1 µM was 12%.

And the inhibition at 1 µM (CDK7/CycH/MAT1)?
The inhibition at 1 µM was 33%.

What about the inhibition at 1 µM (RPS6KA3) of the same compound?
The inhibition at 1 µM was 1%.

What about the inhibition at 1 µM (TXK) of the same compound?
The inhibition at 1 µM was 6%.

What about the inhibition at 1 µM (ABL1) of the same compound?
The inhibition at 1 µM was -1%.

What about the inhibition at 1 µM (JAK3) of the same compound?
Its inhibition at 1 µM is -1%.

What about the inhibition at 1 µM (PYK2) of the same compound?
Its inhibition at 1 µM is 4%.

What about the inhibition at 1 µM (FAK) of the same compound?
The inhibition at 1 µM was -15%.

What about the inhibition at 1 µM (PKCzeta) of the same compound?
The inhibition at 1 µM was -3%.

What about the inhibition at 1 µM (FGFR4) of the same compound?
Its inhibition at 1 µM is 2%.

And the inhibition at 1 µM (RPS6KA1)?
Its inhibition at 1 µM is -1%.

What about the inhibition at 1 µM (EPHA8) of the same compound?
The inhibition at 1 µM was 9%.

And the inhibition at 1 µM (MKK6 SDTD)?
Its inhibition at 1 µM is 11%.

What about the inhibition at 1 µM (AuroraC) of the same compound?
The inhibition at 1 µM was 16%.

And the inhibition at 1 µM (GRK3)?
The inhibition at 1 µM was 5%.
